ChEMBL document CHEMBL1201862, “PubChem BioAssay data set” (2004)
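Test compounds were applied to cells in 96-well plates for 48 hours at 5 doses. Abbreviation: GI50, concentration required for 50% inhibition of growth.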 Calls of active or inactive are those of the source. No stated cut-off is given here; in the data, active = GI50 up to about 1.1 µM and inactive = higher.

Tests used:
Test in all cases: inhibition of tumour cell growth, NCI panel, 48 h
[1] = system: RPMI-8226
[2] = system: HT-29
[3] = system: UACC-62
[4] = system: OVCAR-3
[5] = system: NCI-H226
[6] = system: MOLT-4
[7] = system: KM12
[8] = system: MCF7
[9] = system: TK-10
[10] = system: M14
[11] = system: MDA-MB-231
[12] = system: Hs-578T
[13] = system: ACHN
[14] = system: SNB-75
[15] = system: CAKI-1
[16] = system: SK-MEL-28
[17] = system: UO-31
[18] = system: A549
[19] = system: 786-0
[20] = system: A498
[21] = system: LOX IMVI
[22] = system: HCT-116
[23] = system: SW-620
[24] = system: Malme-3M
[25] = system: UACC-257
[26] = system: OVCAR-8
[27] = system: SK-MEL-2
[28] = system: NCI-H23
[29] = system: OVCAR-5
[30] = system: RXF 393
[31] = system: NCI/ADR-RES
[32] = system: SNB-19
[33] = system: SR
[34] = system: PC-3
[35] = system: IGROV-1
[36] = system: HOP-62
[37] = system: OVCAR-4
[38] = system: NCI-H522
[39] = system: SF-295
[40] = system: CCRF-CEM
[41] = system: SK-MEL-5
[42] = system: SF-268
[43] = system: T47D
[44] = system: DU-145
[45] = system: K562
[46] = system: SF-539
[47] = system: HCT-15
[48] = system: SK-OV-3
[49] = system: MDA-MB-435
[50] = system: HL-60
[51] = system: SN12C
[52] = system: COLO 205
[53] = system: HCC 2998
[54] = system: U-251
[55] = system: BT-549
[56] = system: NCI-H460
[57] = system: HOP-92
[58] = system: MDA-N

Measured: GI50

COc1cc(/C=C/C(=O)CC(=O)/C=C/c2ccc(O)c(OC)c2)ccc1O [CURCUMIN]
4.12 µM: [47]
inactive: [1] 2.09 µM | [2] 5.09 µM | [3] 6.49 µM | [4] 6.64 µM | [5] 18.8 µM | [6] 4.68 µM | [7] 5.45 µM | [8] 3.34 µM | [9] 14.2 µM | [10] 3.78 µM | [11] 17.8 µM | [12] 10.9 µM | [13] 12.4 µM | [14] 6.84 µM | [15] 11.9 µM | [16] 4.5 µM | [17] 11.3 µM | [18] 12.8 µM | [19] 3.33 µM | [20] 16 µM | [21] 2.72 µM | [22] 2.92 µM | [23] 4.19 µM | [24] 14 µM | [25] 11.5 µM | [26] 7.35 µM | [27] 16.5 µM | [28] 5.6 µM | [29] 16.6 µM | [30] 3 µM | [31] 7.26 µM | [32] 9.42 µM | [33] 3.28 µM | [34] 8.79 µM | [35] 7.89 µM | [36] 3.63 µM | [37] 9.33 µM | [38] 5.33 µM | [39] 8.04 µM | [40] 3.03 µM | [41] 8.81 µM | [42] 7.06 µM | [43] 8.36 µM | [44] 15.7 µM | [45] 3.13 µM | [46] 2.84 µM | [48] 8.91 µM | [49] 2.98 µM | [50] 7.33 µM | [51] 8.41 µM | [52] 13.5 µM | [53] 3.02 µM | [54] 4.72 µM | [55] 4.97 µM | [56] 8.07 µM

CCCCCCCCCCCCN1[C@H]2CCC[C@H]2C(O)[C@@H]2CCC[C@@H]21 (some centres not stated)
56.4 µM: [47]
inactive: [1] > 100 µM | [2] > 100 µM | [3] > 100 µM | [4] > 100 µM | [5] 96.6 µM | [57] > 100 µM | [6] > 100 µM | [7] 68.2 µM | [10] > 100 µM | [11] > 100 µM | [12] > 100 µM | [13] > 100 µM | [14] > 100 µM | [15] > 100 µM | [16] > 100 µM | [58] > 100 µM | [18] > 100 µM | [19] > 100 µM | [20] > 100 µM | [21] 81.8 µM | [22] 53.8 µM | [23] > 100 µM | [25] > 100 µM | [26] > 100 µM | [27] > 100 µM | [28] 42.6 µM | [29] > 100 µM | [30] > 100 µM | [31] > 100 µM | [32] > 100 µM | [33] 41 µM | [34] 88.5 µM | [35] 98.9 µM | [36] > 100 µM | [37] > 100 µM | [40] > 100 µM | [41] 58.2 µM | [42] > 100 µM | [43] 29.2 µM | [44] > 100 µM | [45] > 100 µM | [48] > 100 µM | [49] > 100 µM | [50] 33.8 µM | [51] 52.8 µM | [52] > 100 µM | [53] > 100 µM | [54] 77.4 µM | [55] 42.3 µM | [56] > 100 µM
